Source: PubChem BioAssay AID977606 (Broad Institute, 2014)
Calls of active or inactive are those of the source. How the calls were made is not given here.

What follows are molecules tested on INS-1E Gaussia luciferase insulin secretion, no glucose, luminescence (assay: insulin secretion activators without glucose, dose response, counter-screen for glucose-dependent insulin secretion activators, cell-based, INS-1E, Gaussia luciferase, luminescence, cherry-pick (AID 977606)).

SMILES | AC40
C(=C\c1ccc(C2[C@@H]3CN(Cc4nccs4)C[C@H]2N3)cc1)/c1ccccc1 (stereo partly specified) | 9.48 µM
Cc1ccc(CC2(OCCN(C)C)CCC(C(C)(C)C)CC2)cc1 (stereo unspecified) | 5.45 µM
COc1ccc2nc3ccccc3nc2c1NC(=O)c1ccc(Cl)cc1Cl | 5.1 µM
CN(Cc1c(C(=O)N/N=C/c2ccccc2O)nnn1-c1nonc1N)C1CCCCC1 | 5.83 µM
COc1ccc(S(=O)(=O)N2CCc3ccccc32)cc1C(=O)Nc1cccnc1 | 16.3 µM
CC(NC(=O)COC(=O)c1ccccc1Nc1ccccc1)c1ccccc1 (stereo unspecified) | 12.1 µM
CCCCc1c(-c2ccccc2OC)ncn1CCc1ccccc1 | 9.48 µM
O=C(Cn1cnc2c(OCc3ccccc3)ncnc21)NCc1ccccn1 | 31.1 µM
Cc1ccc(-c2n[nH]c(=S)n2/N=C/c2c(C)nn(-c3ccccc3)c2C)cc1 | 6.5 µM
Cc1ccc2sc(-c3ccc(NC(=O)c4cc(-n5cnnc5)ccc4Cl)cc3)nc2c1 | 8.4 µM
COc1cc(/C=N/NC(=O)Nc2ccccc2)ccc1OCCOc1ccccc1C | 1.92 µM
CCSc1nnc(NC(=O)c2csc3c2CCCC3)s1 | 5.49 µM
COc1ccc(-c2cccc(C(=O)Nc3ccc(C)cc3)c2)cc1 | 13.6 µM
O=C(Cn1ncc(Cl)c(Cl)c1=O)Nc1ccc2c(c1)OCO2 | 8.01 µM
Nc1c(C(=O)Nc2ccc3c(c2)OCCO3)nnn1Cc1ccc(Cl)cc1 | 10.1 µM
Cc1cc(S(=O)(=O)Nc2nc(CN3CCOCC3)nc3sc4c(c23)CCC4)ccc1F | > 35 µM (inactive)
C=CCOc1ccc(-c2nc3c(c(=O)[nH]c(=O)n3CCCC)n2C)cc1Br | 10.1 µM
NC[C@H](Cc1ccccc1)NCCc1cc(C(F)(F)F)cc(C(F)(F)F)c1 | 9.24 µM
COC(=O)c1cnn(-c2nc(-c3ccccc3)cs2)c1N | 20.4 µM
Cc1ccc(NC(=O)c2oc3ccc(S(=O)(=O)N4CCOCC4)cc3c2C)cc1C | 7.57 µM
O=C(Nc1ccc(C(F)(F)F)cc1)N1[C@@H]2CNC[C@H]1C2c1ccc(/C=C/c2ccccc2)cc1 (stereo partly specified) | 7.54 µM
COc1ccc(CC2c3cc(OC)c(OC)cc3CCN2C)cc1O (stereo unspecified) | 14.7 µM

SMILES | AC40
Cc1ccc(CNc2nc(NCc3ccccc3)nc3ccsc23)c(C)c1 | 5.58 µM
CCCCCCn1c(N(CC)CC)nc2c1c(=O)[nH]c(=O)n2C | 30.8 µM
CCCc1nc2ccccc2c(=O)n1CC(=O)c1ccc(OC)cc1 | 5.72 µM
CS(=O)(=O)N1CCN(c2ccc(NC(=O)c3ccc(-c4ccc(Cl)cc4)o3)cc2)CC1 | 9.12 µM
CCOC(=O)c1c(-c2ccc(-c3ccccc3)cc2)csc1NC(=O)CNCCN(C)C | 5.75 µM
Cc1ccccc1-c1ccc(C2[C@@H]3CN(C(=O)Nc4cccc(F)c4)C[C@H]2N3)cc1 (stereo partly specified) | 7.52 µM
COc1ccc(C(=O)NC(=S)Nc2ccc3c4c(cccc24)CC3)cc1OC | 6.85 µM
CC(C)CC#Cc1ccc2c(c1)O[C@@H](CN(C)Cc1ccccc1)[C@H](C)CN([C@H](C)CO)S2(=O)=O | 8.93 µM
Cc1cc(Nc2ccc(Cl)cc2)nc(NCc2ccccc2)n1 | 6.67 µM
COc1ccc(/C=N/Nc2nc(-c3ccc(Cl)cc3)cc(C(F)(F)F)n2)c(OC)c1 | 12.2 µM
COc1ccc(NC(=O)c2sc3nc(N4CCOCC4)c4c(c3c2N)CC(C)(C)OC4)c(OC)c1 | 6.06 µM
CCCCc1c(-c2ccccc2OC)ncn1C(C)c1ccccc1 (stereo unspecified) | 12.5 µM
Clc1ccc(-c2ccnc(Oc3ccc4ccccc4c3)n2)cc1 | 7.79 µM
NS(=O)(=O)c1ccc(NC(=S)N2CCN(c3ccc(Cl)c(Cl)c3)CC2)cc1 | 3.74 µM
C[C@H]1CN([C@@H](C)CO)S(=O)(=O)c2ccc(C#Cc3ccccc3)cc2O[C@@H]1CN(C)C(=O)CN(C)C | 11.1 µM
COC(=O)C1=C(C)N(Cc2ccc(C(F)(F)F)cc2)C(=NCC2CC2)NC1c1ccccc1 (stereo unspecified) | 9.63 µM
Cc1ccc(OCC(=O)NC(=S)Nc2cccc(NC(=O)c3ccccc3)c2)cc1 | 8.85 µM
O=C(Nc1ccc(SC(F)F)cc1)c1cccc2nc3ccccc3nc12 | 10.2 µM
CC1(C(=O)NS(=O)(=O)c2ccccc2Cl)CCN1C(=O)C1(c2ccccc2)CCCC1 (stereo unspecified) | 23.4 µM
Cc1cc(OCC(O)CNC(C)c2ccccc2)ccc1C(C)C (stereo unspecified) | 9.73 µM
Cc1ccccc1S(=O)(=O)N1CC(=O)N2[C@@H](CO)[C@H](c3ccc(C#CCC4CCCC4)cc3)[C@@H]2C1 | 22.6 µM
COc1ccccc1C(=O)NC(=S)Nc1ccc2[nH]c(=O)[nH]c2c1 | 8.24 µM

SMILES | AC40
C=CCNc1nc(NCc2ccco2)nc(OCC)n1 | > 35 µM (inactive)
C/C(=N\NC(=O)c1ccc(Cl)c(Cl)c1)c1ccc(Br)s1 | 7.32 µM
Cc1ccccc1Cn1ccc(NC(=O)c2cc3nc(-c4ccco4)cc(C(F)(F)F)n3n2)n1 | 7.7 µM
Cn1c(=O)c(C(=O)NNC(=O)c2cccc(Cl)c2)c(O)c2ccccc21 | 9.13 µM
Cc1ncc(N=Nc2ccc(F)cc2)c(-c2ccc(Cl)cc2)n1 | 8.66 µM
COc1cc(CN2[C@@H]3CNC[C@H]2C3c2ccc(/C=C/c3ccccc3)cc2)cc(OC)c1 (stereo partly specified) | 9.7 µM
CN(Cc1ccccc1)C(=S)NC(=O)c1ccc(-c2ccccc2)cc1 | 24 µM
Cc1cccc(-c2ccc(C3[C@@H]4CN(C(=O)C5CCCCC5)C[C@H]3N4)cc2)c1 (stereo partly specified) | 11.3 µM
COC(=O)c1ccc2c(c1)NC(=O)C(N(CC(C)C)CC(C)C)S2 (stereo unspecified) | 2.51 µM
Cc1ccc(-n2sc3cc(F)ccc3c2=O)c(C)c1 | 0.883 µM
COC(=O)C1=C(C)N(Cc2cccc(C(F)(F)F)c2)C(=NCc2ccc3c(c2)OCO3)NC1CCc1ccccc1 (stereo unspecified) | 6.1 µM
COC(=O)C1=C(C)N(Cc2cccc(C(F)(F)F)c2)C(=NCc2ccc(OC)cc2)NC1c1ccc(F)cc1 (stereo unspecified) | 8.44 µM
Cc1cccc(-n2c(C)c(C)c3c(N)ncnc32)c1 | > 35 µM (inactive)
C/C(=N\NC(=O)c1cccc(Br)c1)c1ccc(Br)cc1 | 13 µM
COc1ccc(-c2cc3ccccc3oc2=O)cc1NC(=S)NC(=O)c1ccc2c(c1)OCCO2 | 1.2 µM
Cc1cccc(OCC(=O)Nc2ccc(NC(=O)c3ccco3)cc2)c1 | 12.4 µM
Cc1ccccc1C(=O)Nc1nnc(-c2ccc(C(C)(C)C)cc2)s1 | 4.97 µM
COc1ccccc1C(=O)NC(=S)NC12CC3CC(CC(C3)C1)C2 | 7.67 µM
Nn1c(-c2ccccc2)cc(-c2ccccc2)cc1=O | > 35 µM (inactive)
COc1ccc(C2=NN(C(C)=O)C(c3cccs3)C2)cc1OC (stereo unspecified) | > 35 µM (inactive)
CCc1ccc(-c2c(C)sc(NC(=O)C3CCC3)c2C#N)cc1 | > 35 µM (inactive)
CC1(Cc2ccc(C(F)(F)F)o2)C(=O)Nc2ccc(-c3cccc(C(F)(F)F)c3)cc21 (stereo unspecified) | 5.92 µM

SMILES | AC40
COc1ccccc1C(=O)Nc1c2c(nn1-c1cccc(C)c1C)CS(=O)(=O)C2 | 13 µM
CCC(=O)Nc1ccc(NC(=S)NC(=O)c2oc3ccccc3c2C)cc1 | 3.36 µM
Cc1ccc(-n2nc3ccc(NC(=O)c4ccco4)cc3n2)cc1 | 8.86 µM
CCCCc1c(-c2ccccc2OC)ncn1Cc1ccc(C)cc1 | 11.9 µM
Cc1nc(NC(=O)c2cccc(-c3cc4ccccc4oc3=O)c2)ccc1Br | 7.19 µM
COc1ccc(C(O)c2nc(-c3ccc(OC)c(OC)c3)cs2)cc1 (stereo unspecified) | 34.2 µM
CS(=O)(=O)c1ccc2nc(NC(=O)Nc3ccc(Cl)c(Cl)c3)sc2c1 | 1.92 µM
NS(=O)(=O)c1ccc(N=Cc2c(O)n(C3CCCCC3)c(=O)n(C3CCCCC3)c2=O)cc1 | 15.1 µM
N/C(=N\OC(=O)COc1ccc(Cl)cc1Cl)c1cccnc1 | 19.3 µM
O=C(Nc1ccc2c(c1)OCO2)N1C[C@@H]2N[C@H](C1)C2c1ccc(C=Cc2ccccc2)cc1 (stereo partly specified) | 11.7 µM
CC(C)CC#Cc1ccc([C@H]2[C@H]3CN(C(=O)c4cnccn4)CC(=O)N3[C@H]2CO)cc1 | > 35 µM (inactive)
O=C(NN=Cc1ccccc1Cl)c1cccc2ccccc12 | 7.18 µM
COc1cccc(-c2ccc(C3[C@@H]4CN(Cc5cccc(F)c5)C[C@H]3N4)cc2)c1 (stereo partly specified) | 7.22 µM
CCCCc1nc(NCCN)c(C#N)c2c1CSC(C)(C)C2 | 11.6 µM
CN(C)C(=O)COC(=O)c1cccnc1Nc1ccccc1F | 29.5 µM
O=C1CCc2cc(S(=O)(=O)N3CCN(c4ccc(F)cc4)CC3)cc3c2N1CC3 | > 35 µM (inactive)
CCS(=O)(=O)Nc1ccc(-c2cc(-c3ccccc3)c3cc(C)ccc3n2)cc1 | 17.5 µM
C[C@@H]1CN([C@@H](C)CO)C(=O)c2cc(Br)cnc2O[C@H]1CN(C)C(=O)C1CC1 | > 35 µM (inactive)
Cc1ccc(C)c(OCC(=O)Nc2nonc2NC(=O)COc2cc(C)ccc2C)c1 | 3.38 µM
O=c1[nH][nH]c2c1C(c1ccc(Cl)c(Cl)c1)OC(CCc1ccccc1)C2 (stereo unspecified) | 19.2 µM
Fc1ccc(/C=N/c2c(-c3ccc(F)cc3)nc3n2CCS3)cc1 | 6.12 µM
N#Cc1cccc(Oc2ccc(-c3cnc4ccccc4n3)cc2)c1C#N | 9.37 µM

SMILES | AC40
O=C(N/N=C\c1ccc(CNS(=O)(=O)c2ccc(Cl)cc2)o1)C(=O)Nc1ccc(Oc2ccccc2)cc1 | 1.8 µM
CCCCc1c(Cc2cccc(F)c2)ncn1CCc1ccccc1OC | 4.98 µM
O=C(CCN1CCOCC1)c1ccccc1 | 10.3 µM
Cc1ccc(C(OCC(O)CNCc2ccc(F)cc2)c2ccccc2)cc1 (stereo unspecified) | 8.22 µM
N#Cc1cccc(-c2ccc(C3[C@H]4CNC[C@@H]3N4Cc3cc(-c4ccccc4)on3)cc2)c1 (stereo partly specified) | 9.78 µM
CCOC(=O)[C@]12Cc3cc(OC)ccc3[C@H]1N(C1CCCCC1)C(=O)c1cc(OC)ccc12 | 11.7 µM
COc1ccc2c(c1)CCc1c(C(=O)Nc3cc(C)n(Cc4ccc(Cl)cc4)n3)noc1-2 | 1.86 µM
O=C(c1ccc(F)cc1)N1C[C@@H]2N[C@H](C1)C2c1ccc(/C=C/c2ccccc2)cc1 (stereo partly specified) | > 11 µM (inactive)
Cc1nc2c(-c3ccc(F)cc3)cnn2c2c1CCC2 | 20.1 µM
COCc1[nH]nc2c1C(c1ccc(C)cc1)NC2=O (stereo unspecified) | 28.5 µM
CC1(C(=O)NCC2CCCCC2)CCN1CCc1ccccc1 (stereo unspecified) | 17.9 µM
NCCCNC(=S)NCCCN(Cc1ccc(Cl)cc1)c1ccc(Br)cn1 | 23.4 µM
CC(C)C(Cl)=NOC(=O)Nc1ccc(S(N)(=O)=O)cc1 | 4.58 µM
COc1ccc(S(=O)(=O)N2CCc3ccccc32)cc1C(=O)Nc1ccc(C(N)=O)cc1 | 6.44 µM
CC(C)(C)OC(=O)N[C@@H](Cc1ccccc1)c1nnc(S(=O)(=O)Cc2ccccc2)o1 | 2.63 µM
C=CCNc1nc(Cl)nc(Nc2ccc(OC)cc2)n1 | 11.3 µM
Cc1ccc(C)c(C(=O)Nc2nc3ccccc3[nH]2)c1 | 4.67 µM
COc1ccc(C(=O)Cc2ccc3c(c2)OCO3)c(O)c1 | 25 µM
